Measurements as given in PubChem BioAssay (NCI).
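The compound was tested at five concentrations on cells cultured in 96-well plates, with a 48-hour exposure period. At the TGI there is no net growth.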

How the values were obtained:
Assay in all cases: NCI-60 cell line screen, 48 h
786-0 renal = tested on: 786-0 renal
A498 renal = tested on: A498 renal
A549 NSCLC = tested on: A549 NSCLC
ACHN renal = tested on: ACHN renal
CAKI-1 renal = tested on: CAKI-1 renal
CCRF-CEM leukemia = tested on: CCRF-CEM leukemia
COLO 205 colon = tested on: COLO 205 colon
DU-145 prostate = tested on: DU-145 prostate
EKVX NSCLC = tested on: EKVX NSCLC
HCC-2998 colon = tested on: HCC-2998 colon
HCT-116 colon = tested on: HCT-116 colon
HCT-15 colon = tested on: HCT-15 colon
HL-60(TB) leukemia = tested on: HL-60(TB) leukemia
HOP-62 NSCLC = tested on: HOP-62 NSCLC
HOP-92 NSCLC = tested on: HOP-92 NSCLC
HS 578T breast = tested on: HS 578T breast
HT29 colon = tested on: HT29 colon
IGROV1 ovarian = tested on: IGROV1 ovarian
K-562 leukemia = tested on: K-562 leukemia
KM12 colon = tested on: KM12 colon
LOX IMVI melanoma = tested on: LOX IMVI melanoma
M14 melanoma = tested on: M14 melanoma
MALME-3M melanoma = tested on: MALME-3M melanoma
MCF7 breast = tested on: MCF7 breast
MDA-MB-231 breast = tested on: MDA-MB-231 breast
MDA-MB-435 = tested on: MDA-MB-435
MDA-N = tested on: MDA-N
MOLT-4 leukemia = tested on: MOLT-4 leukemia
NCI-H226 lung = tested on: NCI-H226 lung
NCI-H23 lung = tested on: NCI-H23 lung
NCI-H460 lung = tested on: NCI-H460 lung
NCI/ADR-RES ovarian = tested on: NCI/ADR-RES ovarian
OVCAR-3 ovarian = tested on: OVCAR-3 ovarian
OVCAR-4 ovarian = tested on: OVCAR-4 ovarian
OVCAR-5 ovarian = tested on: OVCAR-5 ovarian
OVCAR-8 ovarian = tested on: OVCAR-8 ovarian
PC-3 prostate = tested on: PC-3 prostate
RPMI-8226 leukemia = tested on: RPMI-8226 leukemia
RXF 393 renal = tested on: RXF 393 renal
SF-268 CNS = tested on: SF-268 CNS
SF-295 CNS = tested on: SF-295 CNS
SF-539 CNS = tested on: SF-539 CNS
SK-MEL-2 melanoma = tested on: SK-MEL-2 melanoma
SK-MEL-28 melanoma = tested on: SK-MEL-28 melanoma
SK-OV-3 ovarian = tested on: SK-OV-3 ovarian
SN12C renal = tested on: SN12C renal
SNB-19 CNS = tested on: SNB-19 CNS
SNB-75 CNS = tested on: SNB-75 CNS
SR leukemia = tested on: SR leukemia
SW-620 colon = tested on: SW-620 colon
T-47D breast = tested on: T-47D breast
TK-10 renal = tested on: TK-10 renal
U251 CNS = tested on: U251 CNS
UACC-257 melanoma = tested on: UACC-257 melanoma
UACC-62 melanoma = tested on: UACC-62 melanoma
UO-31 renal = tested on: UO-31 renal
SK-MEL-5 melanoma = tested on: SK-MEL-5 melanoma
NCI-H522 lung = tested on: NCI-H522 lung

Measured: TGI

O=C1NC2c3c(I)sc(I)c3/C(=N\O)C2O1 (stereo unspecified)
68.1 µM: HOP-92 NSCLC
60.6 µM: SW-620 colon
57.1 µM: 786-0 renal
33.6 µM: ACHN renal
76.9 µM: U251 CNS
56.8 µM: NCI-H23 lung
32.7 µM: UO-31 renal
58.2 µM: SNB-19 CNS
40.2 µM: OVCAR-3 ovarian
67.8 µM: SF-268 CNS
70.4 µM: HS 578T breast
42.6 µM: SF-539 CNS
80.3 µM: CCRF-CEM leukemia
47.7 µM: NCI/ADR-RES ovarian
35.1 µM: EKVX NSCLC
48.8 µM: COLO 205 colon
44.5 µM: RXF 393 renal
95.8 µM: MDA-MB-231 breast
50.2 µM: MALME-3M melanoma
83.5 µM: HL-60(TB) leukemia
89.8 µM: OVCAR-4 ovarian
33.4 µM: HT29 colon
> 100 µM: A498 renal | A549 NSCLC | CAKI-1 renal | DU-145 prostate | HCC-2998 colon | HCT-15 colon | HOP-62 NSCLC | K-562 leukemia | KM12 colon | LOX IMVI melanoma | M14 melanoma | MCF7 breast | MDA-MB-435 | MDA-N | MOLT-4 leukemia | NCI-H226 lung | NCI-H460 lung | OVCAR-5 ovarian | PC-3 prostate | RPMI-8226 leukemia | SF-295 CNS | SK-MEL-2 melanoma | SK-MEL-28 melanoma | SK-OV-3 ovarian | SN12C renal | SNB-75 CNS | SR leukemia | T-47D breast | TK-10 renal | UACC-257 melanoma | UACC-62 melanoma
75.4 µM: HCT-116 colon
43.4 µM: OVCAR-8 ovarian
45 µM: IGROV1 ovarian

O=C(Nc1ccccn1)/C(=C\C(=O)c1ccc(Cl)cc1)Nc1ccccc1
> 10 µM: 786-0 renal | A549 NSCLC | CAKI-1 renal | CCRF-CEM leukemia | COLO 205 colon | DU-145 prostate | EKVX NSCLC | HCC-2998 colon | HCT-15 colon | HL-60(TB) leukemia | HOP-62 NSCLC | HOP-92 NSCLC | HT29 colon | IGROV1 ovarian | K-562 leukemia | KM12 colon | LOX IMVI melanoma | M14 melanoma | MALME-3M melanoma | MCF7 breast | MDA-MB-231 breast | MDA-MB-435 | MDA-N | MOLT-4 leukemia | NCI-H23 lung | OVCAR-4 ovarian | OVCAR-8 ovarian | PC-3 prostate | RPMI-8226 leukemia | RXF 393 renal | SF-268 CNS | SF-295 CNS | SK-MEL-28 melanoma | SK-MEL-5 melanoma | SK-OV-3 ovarian | SN12C renal | SNB-75 CNS | SR leukemia | SW-620 colon | T-47D breast | TK-10 renal | UACC-257 melanoma | UACC-62 melanoma

O=C(CCC(C(=O)OCc1ccccc1)C(=O)OCc1ccccc1)Nc1ccc(OCc2ccccc2)cc1
> 100 µM: A498 renal | A549 NSCLC | ACHN renal | CAKI-1 renal | CCRF-CEM leukemia | COLO 205 colon | DU-145 prostate | EKVX NSCLC | HCC-2998 colon | HL-60(TB) leukemia | HOP-62 NSCLC | HOP-92 NSCLC | HS 578T breast | HT29 colon | IGROV1 ovarian | K-562 leukemia | KM12 colon | LOX IMVI melanoma | M14 melanoma | MALME-3M melanoma | MDA-MB-231 breast | MDA-MB-435 | MDA-N | MOLT-4 leukemia | NCI-H226 lung | NCI-H23 lung | NCI-H460 lung | NCI-H522 lung | NCI/ADR-RES ovarian | OVCAR-3 ovarian | OVCAR-4 ovarian | OVCAR-5 ovarian | RXF 393 renal | SF-268 CNS | SF-295 CNS | SF-539 CNS | SK-MEL-28 melanoma | SK-OV-3 ovarian | SN12C renal | SNB-19 CNS | SNB-75 CNS | SR leukemia | SW-620 colon | T-47D breast | TK-10 renal | U251 CNS | UACC-257 melanoma | UACC-62 melanoma | UO-31 renal
47.2 µM: PC-3 prostate
32.2 µM: 786-0 renal
32.8 µM: MCF7 breast
34 µM: OVCAR-8 ovarian
27.3 µM: HCT-116 colon
79.4 µM: HCT-15 colon

Nc1c(Br)cc2c(c1Br)Cc1cc(Br)ccc1-2
> 100 µM: A498 renal | A549 NSCLC | ACHN renal | CCRF-CEM leukemia | COLO 205 colon | DU-145 prostate | HCC-2998 colon | HCT-116 colon | HCT-15 colon | HOP-92 NSCLC | HS 578T breast | HT29 colon | K-562 leukemia | KM12 colon | LOX IMVI melanoma | M14 melanoma | MCF7 breast | MDA-MB-231 breast | MDA-MB-435 | MDA-N | MOLT-4 leukemia | NCI-H226 lung | NCI-H23 lung | NCI-H460 lung | NCI-H522 lung | NCI/ADR-RES ovarian | OVCAR-3 ovarian | OVCAR-4 ovarian | OVCAR-8 ovarian | PC-3 prostate | RXF 393 renal | SF-268 CNS | SF-295 CNS | SK-MEL-28 melanoma | SK-MEL-5 melanoma | SK-OV-3 ovarian | SN12C renal | SNB-19 CNS | SNB-75 CNS | SR leukemia | SW-620 colon | T-47D breast | TK-10 renal | U251 CNS | UACC-257 melanoma | UO-31 renal

COC(=O)Cc1cccc2c1CCC2=O
> 100 µM: 786-0 renal | A498 renal | A549 NSCLC | ACHN renal | CCRF-CEM leukemia | COLO 205 colon | DU-145 prostate | EKVX NSCLC | HCC-2998 colon | HCT-116 colon | HCT-15 colon | HL-60(TB) leukemia | HOP-62 NSCLC | HOP-92 NSCLC | HS 578T breast | HT29 colon | IGROV1 ovarian | K-562 leukemia | KM12 colon | LOX IMVI melanoma | M14 melanoma | MALME-3M melanoma | MCF7 breast | MDA-MB-231 breast | MDA-MB-435 | MDA-N | MOLT-4 leukemia | NCI-H226 lung | NCI-H23 lung | NCI-H460 lung | NCI-H522 lung | NCI/ADR-RES ovarian | OVCAR-3 ovarian | OVCAR-4 ovarian | OVCAR-5 ovarian | OVCAR-8 ovarian | PC-3 prostate | RPMI-8226 leukemia | RXF 393 renal | SF-268 CNS | SF-295 CNS | SF-539 CNS | SK-MEL-28 melanoma | SK-MEL-5 melanoma | SK-OV-3 ovarian | SN12C renal | SNB-19 CNS | SNB-75 CNS | SR leukemia | SW-620 colon | T-47D breast | TK-10 renal | U251 CNS | UACC-257 melanoma | UACC-62 melanoma | UO-31 renal
